Results on seven compounds are retold here after patent US8334280B2, “Ligands of estrogen receptors α and β, method of their preparation, and pharmaceuticals comprising them” (Ustav Molekularni Genetikv AV CR, V.V.I., priority 2008, dated 2012).

Assay type in all cases: cell-based
The test system of one series is MCF-7 cells. The series can be described thus: proliferation assay in estrogen-growth-dependent MCF-7 cell line. Conditions: for proliferation effect on MCF-7 cells: 1 nM concentration. On the procedure:
The MCF-7 cell line was derived from a breast adenocarcinoma and, considering its growth dependency on estrogen, it is a valuable tool for evaluation of estrogenic properties of chemical compounds. Since MCF-7 cells express exclusively ERα, the proliferative effect of tested compounds is mediated mainly by this receptor.
MCF-7 cells were cultivated for 6 days in DMEM medium without phenol red containing 8% charcoal treated fetal calf serum and 2 mM glutamine. During this time the cells stopped proliferating and the medium was supplemented with different concentrations of tested compounds in DMSO. The cells were further cultured in the medium described above in the presence of tested compounds, and after 3 days the medium was changed and the tested compounds in DMSO were added to the medium once again. After another 3 days the amount of viable cells was measured using the kit […]-BLUE Cell Viability Assay (Promega) according to the manufacturer's instructions. The fluorescent measurement was carried out on the combined spectrophotometer ENVISION (PerkinElmer), and the results are shown in FIGS. 8 and 9.

A further series deals with T1, human ERβ (Homo sapiens, UniProt Q92731).
T1 construct: expressed in transfected cells; host or cells: COS-7
In words: reporter assay (luciferase) in COS-7 cells transfected with human ERβ. To be noted: for EC50: COS-7 cells, 24 h with compound, luciferase, read-out: EC50 of tested ligands in the reporter assays, ER β; for ligand selectivity for ERβ in the reporter assays: ratio of relative activities of ERα and ERβ, E2 = 1.00. As to the method: (§1) The activity of some of the selected novel ligands of estrogen receptors was determined in reporter assays with the COS-7 cells. The reporter assay has an advantage over a classical determination of the ligand binding affinity for the receptor because in the case of steroid hormone receptors the high affinity of the ligand for the receptor doesn't always result in the equally high potency of activating the transcription via the receptor. The COS-7 cell line provides a significant advantage for this type of experiment, since it doesn't express endogenous ERα or ERβ at significant levels, and therefore it is highly suitable for the reporter assays. In addition, these compounds were also tested in the reporter assays with HEK293 cell-line.
(§2) COS-7 cells were transfected with the expression vector encoding human ERα or ERβ and with the reporter vector containing one estrogen responsive element followed by the minimal thymidine kinase promoter from the herpes simples virus. Luciferase was used as a reporter gene. The cells were seeded in a white 96-well plate after transfection, and were further cultivated in the DMEM medium without phenol red containing 2 mM glutamine, 20 mM Hepes, pH 7.5, 5 μg/ml insulin, 5 μg/ml human transferine, 100 μg/m1 bovine serum albumin (BSA). Serially diluted compounds in DMSO were added to cells 24 hours after transfection, and after the next 24 hours the luciferase activity was measured using the commercial STEADY-GLO Luciferase Assay Kit (Promega) according to the manufacturer's instructions. The luminescence was measured using the combined spectrophotometer ENVISION (PerkinElmer) with 1 s signal integration. […] The ligand selectivity for the given receptor was calculated as a ratio of relative activities of ERα and ERβ for the given ligand.
(In a reporter assay the amount or activity of a reporter protein is the signal.)

The target in another series is T2, human ERα (Homo sapiens, UniProt P03372).
T2 construct: expressed in transfected cells; host or cells: COS-7
T2 sequence (P03372 1-595): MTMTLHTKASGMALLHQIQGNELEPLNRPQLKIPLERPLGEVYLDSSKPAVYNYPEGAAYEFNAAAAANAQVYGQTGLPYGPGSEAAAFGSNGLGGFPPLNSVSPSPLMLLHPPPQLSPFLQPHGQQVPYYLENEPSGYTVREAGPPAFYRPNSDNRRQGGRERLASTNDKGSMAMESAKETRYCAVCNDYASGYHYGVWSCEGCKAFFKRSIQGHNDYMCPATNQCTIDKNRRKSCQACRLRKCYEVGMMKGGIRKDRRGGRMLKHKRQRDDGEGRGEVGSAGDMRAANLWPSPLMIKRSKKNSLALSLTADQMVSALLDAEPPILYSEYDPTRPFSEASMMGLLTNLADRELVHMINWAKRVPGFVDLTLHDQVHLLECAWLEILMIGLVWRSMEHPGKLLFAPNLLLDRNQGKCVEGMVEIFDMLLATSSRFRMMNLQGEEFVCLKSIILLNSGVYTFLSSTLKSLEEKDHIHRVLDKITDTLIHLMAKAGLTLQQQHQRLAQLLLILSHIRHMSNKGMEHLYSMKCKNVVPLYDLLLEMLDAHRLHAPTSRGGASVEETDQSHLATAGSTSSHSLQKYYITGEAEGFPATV
The series can be described thus: reporter assay (luciferase) in COS-7 cells transfected with human ERα. Conditions: for EC50: COS-7 cells, 24 h with compound, luciferase, read-out: EC50 of tested ligands in the reporter assays, ER α; for ligand selectivity for ERα in the reporter assays: ratio of relative activities of ERα and ERβ, E2 = 1.00. On the procedure:
as §1, §2

T1 sequence (Q92731 whole entry): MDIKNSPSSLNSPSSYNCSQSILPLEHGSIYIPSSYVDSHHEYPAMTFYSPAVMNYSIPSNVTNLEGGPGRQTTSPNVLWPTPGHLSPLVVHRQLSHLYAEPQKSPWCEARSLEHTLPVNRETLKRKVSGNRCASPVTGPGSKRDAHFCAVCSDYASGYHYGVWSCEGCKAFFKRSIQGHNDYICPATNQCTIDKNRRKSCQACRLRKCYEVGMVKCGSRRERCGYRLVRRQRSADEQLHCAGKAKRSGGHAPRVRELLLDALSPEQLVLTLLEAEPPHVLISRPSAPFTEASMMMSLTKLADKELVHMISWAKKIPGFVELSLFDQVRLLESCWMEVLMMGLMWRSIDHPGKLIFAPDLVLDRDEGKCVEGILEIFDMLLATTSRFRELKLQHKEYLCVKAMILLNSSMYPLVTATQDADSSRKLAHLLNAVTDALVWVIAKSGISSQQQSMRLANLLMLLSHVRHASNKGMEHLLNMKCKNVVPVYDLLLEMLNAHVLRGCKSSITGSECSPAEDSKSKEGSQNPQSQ

For `C[C@]12CC[C@@H]3c4ccc(O)cc4CC[C@H]3[C@@H]1CC[C@@H]2O` [Ligand E2, estradiol, reference compound], the “toxic effect on MCF-7 cells” value with MCF-7 cells (high concentrations of ligands (1-10 μM)) is listed as “toxic effect”.
Turning to `C[C@]12CC[C@@H]3c4ccc(O)cc4CC[C@H]3[C@@H]1CC[C@@]2(O)c1ccc2c(c1)CCC2` [PN214, 17α-(1,3-Dihydro-2H-inden-5-yl)-estradiol], the results for the half-maximal effective concentration (EC50) on human ERβ and on human ERα were 1.08 nM and 21.1 nM, respectively. Besides, in the series on MCF-7 cells, the “proliferation effect on MCF-7 cells” value is listed as “no activity”. For the same compound, the “stimulation of ERα in the reporter assays” value on human ERα (1 nM) is reported as “doesn't stimulate ERα”. The “ligand selectivity for ERα in the reporter assays” value (“ligand selectivity for ERα” for short) at human ERα is on record as 0.02.
As for `CCOC(=O)C1(C(C)=O)Cc2ccc([C@]3(O)CC[C@H]4[C@@H]5CCc6cc(O)ccc6[C@H]5CC[C@@]43C)cc2C1` (stereo partly drawn) [PN207, 17α-[2-Acetyl-2-(ethoxycarbonyl)-1,3-dihydro-2H-inden-5-yl]-estradiol], the EC50 at human ERβ amounted to 14.5 nM.
The same measure, in the same setting: in the case of `CCOC(=O)C1(C#N)Cc2ccc([C@]3(O)CC[C@H]4[C@@H]5CCc6cc(O)ccc6[C@H]5CC[C@@]43C)cc2C1` (stereo partly drawn) [PN233, 17α-[2-Cyano-2-(ethoxycarbonyl)-1,3-dihydro-2H-inden-5-yl]-estradiol] it was 12.8 nM.
For the compound `CC(=O)C1(C(C)=O)Cc2ccc([C@]3(O)CC[C@H]4[C@@H]5CCc6cc(O)ccc6[C@H]5CC[C@@]43C)cc2C1` [PN228, 17α-(2,2-Diacetyl-1,3-dihydro-2H-inden-5-yl)-estradiol], on human ERβ, the EC50 stood at 60.4 nM and the “ligand selectivity for ERβ in the reporter assays” value was 0.86. At human ERα, the concentration giving a half-maximal response (EC50) turned out to be 19 nM and the “ligand selectivity for ERα” value came out at 1.16.
Take `CCOC(=O)C1(C(=O)OCC)Cc2ccc([C@]3(O)CC[C@H]4[C@@H]5CCc6cc(O)ccc6[C@H]5CC[C@@]43C)cc2C1` [PN202, 17α[2,2-Bis(ethoxycarbonyl)-1,3-dihydro-2H-inden-5-yl]-estradiol]: on human ERβ, the EC50 was 19.3 nM and the “ligand selectivity for ERβ in the reporter assays” value was 0.55. For the same compound, the “proliferation effect on MCF-7 cells” value in the series on MCF-7 cells is on record as “comparable to estradiol”. Besides, at human ERα, the EC50 turned out to be 3.85 nM and the “ligand selectivity for ERα” value stood at 1.83.
`Cc1ccc(S(=O)(=O)N2Cc3ccc([C@]4(O)CC[C@H]5[C@@H]6CCc7cc(O)ccc7[C@H]6CC[C@@]54C)cc3C2)cc1` [PN229, 17α-(1,3-Dihydro-2-tosyl-2H-indol-5-yl)-estradiol]: the EC50 at human ERβ came out at 62.7 nM.

By EC50 is commonly meant the concentration needed to bring the measured effect to its halfway point.
